# Measured values as given in US4093796A, “Antibiotic derivatives of polyene macrolide group and method of obtaining the same” (Politechnika Gdanska, priority 1971, dated 1978).
# Legend:
# Type in all cases: cell-based
# Candida albicans [1] = test: antimicrobial activity in solid nutrient medium (serial dilution), Candida albicans; conditions: solid Sabouraud medium, 36° C, 24 hours
# Procedure: (§1) (a) determination of the antimicrobial activity of antibiotics and their derivatives in solid nutrient medium-- table 1
# (§2) The antimicrobial activity in solid nutrient medium has been estimated with the aid of the serial dilution method as follows: 1 mg of antibiotic was dissolved in 1 ml of dimethylsulphoxide and diluted with 9 ml of sterile water. Serial dilutions in water had been performed and the minimum concentration inhibiting the growth of standard strains of Candida albicans and Saccahromyces cerevisiae estimated: 0.5 ml of the antibiotic solution was mixed in a Petri dish 10 cm in diameter with 9.5 ml of Sabouraud medium having a temperature of about 60° C. After mixing, solidifying the nutrient agar and inoculating the test microorganism on the surface, they were incubated at 36° C for 24 hours. The minimum inhibitory concentration was stated on the basis of observed absence of microorganism growth.
# Saccahromyces cerevisiae = test: antimicrobial activity in solid nutrient medium (serial dilution), Saccharomyces cerevisiae; conditions: solid Sabouraud medium, 36° C, 24 hours
# Procedure: as §1, §2
# Candida albicans [2] = test: inhibition of pathogenic strains isolated from contaminated human members, Candida albicans; conditions: 12 strains studied
# Procedure: (§3) Studies were also conducted on the activity of the glucose derivative of nystatin, as compared with nystatin, in relation to a series of pathogenic strains of Candida and Geotrichum isolated from contaminated human members.
# Candida sp. = test: inhibition of pathogenic strains isolated from contaminated human members, Candida sp.; conditions: 8 strains studied
# Procedure: as §3
# Geotrichum sp. = test: inhibition of pathogenic strains isolated from contaminated human members, Geotrichum sp.; conditions: 12 strains studied
# Procedure: as §3
# [3] = Candida albicans after 24 hrs, 3.12 mcg/ml
# [4] = Candida albicans after 24 hrs, 6.25 mcg/ml
# [5] = Candida albicans after 24 hrs, 12.5 mcg/ml
# [6] = Candida albicans after 24 hrs, 25.0 mcg/ml
# [7] = Candida albicans after 24 hrs, 50.0 mcg/ml
# [8] = Candida albicans after 48 hrs, 3.12 mcg/ml
# [9] = Candida albicans after 48 hrs, 6.25 mcg/ml
# [10] = Candida albicans after 48 hrs, 12.5 mcg/ml
# [11] = Candida albicans after 48 hrs, 25.0 mcg/ml
# [12] = Candida albicans after 48 hrs, 50.0 mcg/ml
# [13] = Candida sp. after 24 hrs, 3.12 mcg/ml
# [14] = Candida sp. after 24 hrs, 6.25 mcg/ml
# [15] = Candida sp. after 24 hrs, 12.5 mcg/ml
# [16] = Candida sp. after 24 hrs, 25.0 mcg/ml
# [17] = Candida sp. after 24 hrs, 50.0 mcg/ml
# [18] = Candida sp. after 48 hrs, 3.12 mcg/ml
# [19] = Candida sp. after 48 hrs, 6.25 mcg/ml
# [20] = Candida sp. after 48 hrs, 12.5 mcg/ml
# [21] = Candida sp. after 48 hrs, 25.0 mcg/ml
# [22] = Candida sp. after 48 hrs, 50.0 mcg/ml
# [23] = Geotrichum sp. after 24 hrs, 3.12 mcg/ml
# [24] = Geotrichum sp. after 24 hrs, 6.25 mcg/ml
# [25] = Geotrichum sp. after 24 hrs, 12.5 mcg/ml
# [26] = Geotrichum sp. after 24 hrs, 25.0 mcg/ml
# [27] = Geotrichum sp. after 24 hrs, 50.0 mcg/ml
# [28] = Geotrichum sp. after 48 hrs, 3.12 mcg/ml
# [29] = Geotrichum sp. after 48 hrs, 6.25 mcg/ml
# [30] = Geotrichum sp. after 48 hrs, 12.5 mcg/ml
# [31] = Geotrichum sp. after 48 hrs, 25.0 mcg/ml
# [32] = Geotrichum sp. after 48 hrs, 50.0 mcg/ml
smiles,measurement,setting,value
C[C@@H]1[C@H](O)[C@@H](C)/C=C/C=C/CC/C=C/C=C/C=C/C=C/C(O[C@H]2O[C@H](C)[C@@H](O)[C@H](N)[C@@H]2O)CC2O[C@](O)(CC(O)C(O)CCC(O)CC(O)CC(O)CC(=O)O[C@H]1C)CC(O)C2C(=O)O (stereo partly shown) [nystatin],Minimum inhibitory concentration against Candida albicans,Candida albicans [1],2 µg/mL
same,Minimum inhibitory concentration against cerevisiae,Saccahromyces cerevisiae,2 µg/mL
same,Number of strains the growth of which has been inhibited,"Candida albicans [2]; Candida albicans after 24 hrs, 1.56 mcg/ml",1 strains
same,Number of strains the growth of which has been inhibited,Candida albicans [2]; [3],11 strains
same,Number of strains the growth of which has been inhibited,Candida albicans [2]; [4],0 strains
same,Number of strains the growth of which has been inhibited,Candida albicans [2]; [5],0 strains
same,Number of strains the growth of which has been inhibited,Candida albicans [2]; [6],0 strains
same,Number of strains the growth of which has been inhibited,Candida albicans [2]; [7],0 strains
same,Number of strains the growth of which has been inhibited,"Candida albicans [2]; Candida albicans after 48 hrs, 1.56 mcg/ml",0 strains
same,Number of strains the growth of which has been inhibited,Candida albicans [2]; [8],2 strains
same,Number of strains the growth of which has been inhibited,Candida albicans [2]; [9],10 strains
same,Number of strains the growth of which has been inhibited,Candida albicans [2]; [10],0 strains
same,Number of strains the growth of which has been inhibited,Candida albicans [2]; [11],0 strains
same,Number of strains the growth of which has been inhibited,Candida albicans [2]; [12],0 strains
same,Number of strains the growth of which has been inhibited,"Candida sp.; Candida sp. after 24 hrs, 1.56 mcg/ml",2 strains
same,Number of strains the growth of which has been inhibited,Candida sp.; [13],3 strains
same,Number of strains the growth of which has been inhibited,Candida sp.; [14],1 strains
same,Number of strains the growth of which has been inhibited,Candida sp.; [15],2 strains
same,Number of strains the growth of which has been inhibited,Candida sp.; [16],0 strains
same,Number of strains the growth of which has been inhibited,Candida sp.; [17],0 strains
same,Number of strains the growth of which has been inhibited,"Candida sp.; Candida sp. after 48 hrs, 1.56 mcg/ml",0 strains
same,Number of strains the growth of which has been inhibited,Candida sp.; [18],3 strains
same,Number of strains the growth of which has been inhibited,Candida sp.; [19],1 strains
same,Number of strains the growth of which has been inhibited,Candida sp.; [20],3 strains
same,Number of strains the growth of which has been inhibited,Candida sp.; [21],1 strains
same,Number of strains the growth of which has been inhibited,Candida sp.; [22],0 strains
same,Number of strains the growth of which has been inhibited,"Geotrichum sp.; Geotrichum sp. after 24 hrs, 1.56 mcg/ml",0 strains
same,Number of strains the growth of which has been inhibited,Geotrichum sp.; [23],2 strains
same,Number of strains the growth of which has been inhibited,Geotrichum sp.; [24],10 strains
same,Number of strains the growth of which has been inhibited,Geotrichum sp.; [25],0 strains
same,Number of strains the growth of which has been inhibited,Geotrichum sp.; [26],0 strains
same,Number of strains the growth of which has been inhibited,Geotrichum sp.; [27],0 strains
same,Number of strains the growth of which has been inhibited,"Geotrichum sp.; Geotrichum sp. after 48 hrs, 1.56 mcg/ml",0 strains
same,Number of strains the growth of which has been inhibited,Geotrichum sp.; [28],0 strains
same,Number of strains the growth of which has been inhibited,Geotrichum sp.; [29],5 strains
same,Number of strains the growth of which has been inhibited,Geotrichum sp.; [30],7 strains
same,Number of strains the growth of which has been inhibited,Geotrichum sp.; [31],0 strains
same,Number of strains the growth of which has been inhibited,Geotrichum sp.; [32],0 strains
C[C@@H]1[C@H](O)[C@@H](C)/C=C/C=C/CC/C=C/C=C/C=C/C=C/[C@H](O[C@@H]2O[C@H](C)[C@@H](O)[C@H](NC3O[C@H](CO)[C@@H](O)[C@H](O)[C@H]3O)[C@@H]2O)C[C@@H]2O[C@](O)(C[C@@H](O)[C@H](O)CC[C@@H](O)C[C@@H](O)C[C@@H](O)CC(=O)O[C@H]1C)C[C@H](O)[C@H]2C(=O)O (stereo partly shown) [glucose derivative of nystatin],Minimum inhibitory concentration against Candida albicans,Candida albicans [1],2 µg/mL
same,Minimum inhibitory concentration against cerevisiae,Saccahromyces cerevisiae,2 µg/mL
same,Number of strains the growth of which has been inhibited,Candida albicans [2]; [3],1 strains
same,Number of strains the growth of which has been inhibited,Candida albicans [2]; [4],11 strains
same,Number of strains the growth of which has been inhibited,Candida albicans [2]; [5],0 strains
same,Number of strains the growth of which has been inhibited,Candida albicans [2]; [6],0 strains
same,Number of strains the growth of which has been inhibited,Candida albicans [2]; [7],0 strains
same,Number of strains the growth of which has been inhibited,Candida albicans [2]; [8],0 strains
same,Number of strains the growth of which has been inhibited,Candida albicans [2]; [9],0 strains
same,Number of strains the growth of which has been inhibited,Candida albicans [2]; [10],12 strains
same,Number of strains the growth of which has been inhibited,Candida albicans [2]; [11],0 strains
same,Number of strains the growth of which has been inhibited,Candida albicans [2]; [12],0 strains
same,Number of strains the growth of which has been inhibited,Candida sp.; [13],2 strains
same,Number of strains the growth of which has been inhibited,Candida sp.; [14],5 strains
same,Number of strains the growth of which has been inhibited,Candida sp.; [15],0 strains
same,Number of strains the growth of which has been inhibited,Candida sp.; [16],1 strains
same,Number of strains the growth of which has been inhibited,Candida sp.; [17],0 strains
same,Number of strains the growth of which has been inhibited,Candida sp.; [18],0 strains
same,Number of strains the growth of which has been inhibited,Candida sp.; [19],2 strains
same,Number of strains the growth of which has been inhibited,Candida sp.; [20],3 strains
same,Number of strains the growth of which has been inhibited,Candida sp.; [21],2 strains
same,Number of strains the growth of which has been inhibited,Candida sp.; [22],1 strains
same,Number of strains the growth of which has been inhibited,Geotrichum sp.; [23],0 strains
same,Number of strains the growth of which has been inhibited,Geotrichum sp.; [24],5 strains
same,Number of strains the growth of which has been inhibited,Geotrichum sp.; [25],7 strains
same,Number of strains the growth of which has been inhibited,Geotrichum sp.; [26],0 strains
same,Number of strains the growth of which has been inhibited,Geotrichum sp.; [27],0 strains
same,Number of strains the growth of which has been inhibited,Geotrichum sp.; [28],0 strains
same,Number of strains the growth of which has been inhibited,Geotrichum sp.; [29],0 strains
same,Number of strains the growth of which has been inhibited,Geotrichum sp.; [30],9 strains
same,Number of strains the growth of which has been inhibited,Geotrichum sp.; [31],3 strains
same,Number of strains the growth of which has been inhibited,Geotrichum sp.; [32],0 strains
